Here are results for 2 molecules from patent US20110171714A1, “CRYSTAL STRUCTURE OF TAK1-TAB1” (VERTEX PHARMACEUTICALS INCORPORATED, priority 2005, published 2011).

Experiment [1] relates to picryl chloride-induced ear swelling. The following applies: picryl chloride-induced ear swelling mouse model; cited from earlier work.
Experiment [2] concerns the target T1, TAK1 kinase domain (residues I31-Q303) of human transforming growth factor-beta-activated kinase 1, as part … (human, UniProt O43318 31-303).
T1 construct: range 31-303; In the crystal this domain is not a separate chain; Its C-terminus (Q303) is fused directly, without linker, to TAB1 H468-P504, giving one polypeptide; It was expressed in baculovirus/Hi5 cells and is unphosphorylated; The N-terminal His6 tag was removed by thrombin; also called TAK1 catalytic kinase domain
T1 sequence (looked up): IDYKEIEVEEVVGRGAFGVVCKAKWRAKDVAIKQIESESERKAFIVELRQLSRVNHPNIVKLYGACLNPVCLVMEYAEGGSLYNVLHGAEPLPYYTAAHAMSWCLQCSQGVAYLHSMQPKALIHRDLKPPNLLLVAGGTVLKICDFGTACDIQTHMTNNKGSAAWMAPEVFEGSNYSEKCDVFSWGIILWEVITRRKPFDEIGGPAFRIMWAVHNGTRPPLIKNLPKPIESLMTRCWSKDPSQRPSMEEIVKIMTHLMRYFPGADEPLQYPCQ
Put plainly: X-ray crystal structure of the TAK1(I31-Q303)/TAB1(H468-P504) chimera (both parts in one fused chain).

In the case of `COc1cc(O)c2c(c1)/C=C/C[C@H](O)[C@H](O)C(=O)/C=C\C[C@H](C)OC2=O` [5Z-7-oxozeaenol], the effect on inflammation entry in experiment [1] is on record as “relieves inflammation”.

B1: TAB1 segment (residues H468-P504) of human TAK1 binding protein, as part of the TAK1(I31-Q303)/TAB1(H468-P504) chimera (peptide, UniProt Q15750 468-504, looked up)
chain: HSLPPGEDGRVEPYVDFAEFYRLWSVDHGEQSVVTAP
notes: range 468-504; In the crystal this segment is not a separate chain; It is fused directly to the C-terminus of TAK1 I31-Q303; also called Tab1 peptide
Consider B1, for which the binding result in experiment [2] is given as “binds”.
